According to US20240254118A1, “PRMT5 INHIBITORS AND USES THEREOF” (Gilead Sciences, Inc., priority 2022, published 2024):

Legend:
[1] = test system: SDMA signal (PRMT5 inhibition) in HCT116 MTAP-deleted cells; experiment: Symmetric di-methyl arginine image-based high content screen assay (SDMA assay), HCT116 MTAP-deleted; assay type: cell-based; settings: SDMA assay; for EC50: Homo sapiens, HCT-116, 72 h, 3 days of treatment, cell line not given, taken as HCT116 MTAP-deleted, read-out: EC50 (SDMA assay); for EC50 selectivity (SDMA assay): taken as HCT116 WT versus MTAP-deleted
Method in brief: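 Read-out: per-cell mean SDMA immunofluorescence (Alexa Fluor 488 secondary), cells segmented by DAPI on a high-content imager. Compound exposure in HCT116 MTAP-deleted cells lasted until fixation on Day 3; overnight 4° C primary anti-SDMA antibody staining.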

[2] = test system: HCT116 MTAP-deleted cells; experiment: Cell viability assay (CellTiter-Glo, 7 days), HCT116 MTAP-deleted; settings: Homo sapiens, HCT-116, 168 h

| EC50 [1] [nM] | EC50 selectivity (SDMA assay) [1] | SMILES | CC50 [2] [nM] |
| --- | --- | --- | --- |
| 1 to 5 | 252 | CN(C(=O)C12CC(F)(C1)C2)N(Cc1ccc(C(F)(F)F)cn1)C(=O)c1ccc2nc(N)c3cnn(C)c3c2c1 [Example 102, 4-amino-N′-(3-fluorobicyclo[1.1.1]pentane-1-carbonyl)-N′,1-dimethyl-N-[[5-(trifluoromethyl)-2-pyridyl]methyl]pyrazolo[4,3-c]quinoline-8-carbohydrazide] | < 100 |
| > 5 | <500 | CC(=O)N1CC(C(=O)N(C)N(Cc2ccc(C(F)(F)F)cn2)C(=O)c2ccc3nc(N)c4cnn(C)c4c3c2)C1 [Example 103, N′-(1-acetylazetidine-3-carbonyl)-4-amino-N′,1-dimethyl-N-[[5-(trifluoromethyl)-2-pyridyl]methyl]pyrazolo[4,3-c]quinoline-8-carbohydrazide] | > 1000 |
| 1 to 5 | 173 | CN(C(=O)C1CCC1)N(Cc1ccc(C(F)(F)F)nn1)C(=O)c1ccc2nc(N)c3cnn(C)c3c2c1 [Example 104, 4-amino-N′-(cyclobutanecarbonyl)-N′,1-dimethyl-N-((6-(trifluoromethyl)pyridazin-3-yl)methyl)-1H-pyrazolo[4,3-c]quinoline-8-carbohydrazide] | < 100 |
| < 1 | 15 | CN(C(=O)c1cocn1)N(Cc1ccc(C(F)(F)F)cn1)C(=O)c1ccc2nc(N)c3cnn(C)c3c2c1 [Example 105, N′-(4-amino-1-methyl-1H-pyrazolo[4,3-c]quinoline-8-carbonyl)-N-methyl-N′-((5-(trifluoromethyl)pyridin-2-yl)methyl)oxazole-4-carbohydrazide] | < 100 |
| < 1 | 16 | CN(C(=O)c1cscn1)N(Cc1ccc(C(F)(F)F)cn1)C(=O)c1ccc2nc(N)c3cnn(C)c3c2c1 [Example 106, N′-(4-amino-1-methyl-1H-pyrazolo[4,3-c]quinoline-8-carbonyl)-N-methyl-N′-((5-(trifluoromethyl)pyridin-2-yl)methyl)thiazole-4-carbohydrazide] | < 100 |
| < 1 | 163 | CC(=O)N(N(Cc1ccc(C(F)(F)F)cn1)C(=O)c1ccc2nc(N)c3cnn(C)c3c2c1)C12CC(C1)C2 [Example 107, N′-acetyl-4-amino-N′-(1-bicyclo[1.1.1]pentanyl)-1-methyl-N-[[5-(trifluoromethyl)-2-pyridyl]methyl]pyrazolo[4,3-c]quinoline-8-carbohydrazide] | < 100 |
| < 1 | 70 | CN(C(=O)C1CCC1)N(Cc1ccc(C(F)(F)F)cn1)C(=O)c1ccc2nc(N)c3cnn(C)c3c2c1 [Example 108, 4-amino-N′-(cyclobutanecarbonyl)-N′,1-dimethyl-N-[[5-(trifluoromethyl)-2-pyridyl]methyl]pyrazolo[4,3-c]quinoline-8-carbohydrazide] | < 100 |
| < 1 | 12 | CN(C(=O)OCC(F)(F)F)N(Cc1ccc(C(F)(F)F)cn1)C(=O)c1ccc2nc(N)c3cnn(C)c3c2c1 [Example 109, 2,2,2-trifluoroethyl N-[(4-amino-1-methyl-pyrazolo[4,3-c]quinoline-8-carbonyl)-[[5-(trifluoromethyl)-2-pyridyl]methyl]amino]-N-methyl-carbamate] | < 100 |
| < 1 | 11 | CN(C(=O)OCC(F)F)N(Cc1ccc(C(F)(F)F)cn1)C(=O)c1ccc2nc(N)c3cnn(C)c3c2c1 [Example 110, 2,2-difluoroethyl N-[(4-amino-1-methyl-pyrazolo[4,3-c]quinoline-8-carbonyl)-[[5-(trifluoromethyl)-2-pyridyl]methyl]amino]-N-methyl-carbamate] | < 100 |
| < 1 | 129 | CN(C(=O)C1CC1)N(Cc1ccc(C(F)(F)F)cn1)C(=O)c1ccc2nc(N)c3cnn(C)c3c2c1 [Example 111, 4-amino-N′-(cyclopropanecarbonyl)-N′,1-dimethyl-N-[[5-(trifluoromethyl)-2-pyridyl]methyl]pyrazolo[4,3-c]quinoline-8-carbohydrazide] | < 100 |
| < 1 | 46 | CN(C(=O)OC1CCC1)N(Cc1ccc(C(F)(F)F)cn1)C(=O)c1ccc2nc(N)c3cnn(C)c3c2c1 [Example 112, cyclobutyl N-[(4-amino-1-methyl-pyrazolo[4,3-c]quinoline-8-carbonyl)-[[5-(trifluoromethyl)-2-pyridyl]methyl]amino]-N-methyl-carbamate] | < 100 |
| 1 to 5 | 404 | CN(C(=O)c1ccncc1)N(Cc1ccc(C(F)(F)F)cn1)C(=O)c1ccc2nc(N)c3cnn(C)c3c2c1 [Example 113, 4-amino-N′,1-dimethyl-N′-(pyridine-4-carbonyl)-N-[[5-(trifluoromethyl)-2-pyridyl]methyl]pyrazolo[4,3-c]quinoline-8-carbohydrazide] | 100 to 1000 |
| < 1 | 32 | CC(=O)N(c1ncccn1)N(Cc1ccc(C(F)(F)F)cn1)C(=O)c1ccc2nc(N)c3cnn(C)c3c2c1 [Example 114, N′-acetyl-4-amino-1-methyl-N′-pyrimidin-2-yl-N-[[5-(trifluoromethyl)-2-pyridyl]methyl]pyrazolo[4,3-c]quinoline-8-carbohydrazide] | < 100 |
| 1 to 5 | 382 | CC(=O)N(CC(F)F)N(Cc1ccc(C(F)(F)F)cn1)C(=O)c1ccc2nc(N)c3cnn(C)c3c2c1 [Example 115, N′-acetyl-4-amino-N′-(2,2-difluoroethyl)-1-methyl-N-[[5-(trifluoromethyl)-2-pyridyl]methyl]pyrazolo[4,3-c]quinoline-8-carbohydrazide] | 100 to 1000 |
| 1 to 5 | 189 | CC(=O)N(CC(F)(F)F)N(Cc1ccc(C(F)(F)F)cn1)C(=O)c1ccc2nc(N)c3cnn(C)c3c2c1 [Example 116, N′-acetyl-4-amino-1-methyl-N′-(2,2,2-trifluoroethyl)-N-[[5-(trifluoromethyl)-2-pyridyl]methyl]pyrazolo[4,3-c]quinoline-8-carbohydrazide] | 100 to 1000 |
| < 1 | 34 | CN(C(=O)C1(F)CC1)N(Cc1ccc(C(F)(F)F)cn1)C(=O)c1ccc2nc(N)c3cnn(C)c3c2c1 [Example 117, 4-amino-N′-(1-fluorocyclopropanecarbonyl)-N′,1-dimethyl-N-[[5-(trifluoromethyl)-2-pyridyl]methyl]pyrazolo[4,3-c]quinoline-8-carbohydrazide] | < 100 |
| < 1 | 96 | CN(C(=O)c1ccccn1)N(Cc1ccc(C(F)(F)F)cn1)C(=O)c1ccc2nc(N)c3cnn(C)c3c2c1 [Example 118, 4-amino-N′,1-dimethyl-N′-picolinoyl-N-((5-(trifluoromethyl)pyridin-2-yl)methyl)-1H-pyrazolo[4,3-c]quinoline-8-carbohydrazide] | < 100 |
